# Test results as given in ChEMBL document CHEMBL1144896 (2003).
# Experiments:
# [1] = tested on: BJ; assay: Compound was tested for cytomegalovirus or (pPCMV-SEAP) activity in immortalized hTERT-BJ1 at 2.0 uM concentration; format: functional, Homo sapiens
# [2] = tested on: BJ; assay: Compound was tested for human telomerase reverse transcriptase-SEAP (hTERT-SEAP) activity in immortalized hTERT-BJI at 22 uM concentration; format: functional
# [3] = tested on: BJ; assay: pPCMV-SEAP (cytomegalovirus-SEAP) activity in immortalized hTERT-BJ1 at 220 uM concentration and level of cell viability determined in MTT assay; format: functional, Homo sapiens
# [4] = tested on: NCI-H1299; assay: Compound was tested for human telomerase reverse transcriptase-SEAP (hTERT-SEAP) activity in non-small cell lung cancer H1299 cell at 220.0 uM concentration; format: functional
# [5] = tested on: BJ; assay: hTERT-SEAP (Human telomerase reverse transcriptase-SEAP) activity in immortalized hTERT-BJI at 2.2 uM concentration and level of cell viability determined in MTT assay; format: functional
# [6] = tested on: BJ; assay: Compound was tested for human telomerase reverse transcriptase-SEAP (hTERT-SEAP) activity in immortalized hTERT-BJI at 2.2 uM concentration; format: functional
# [7] = tested on: BJ; assay: Compound was tested for cytomegalovirus or (pPCMV-SEAP) activity in immortalized hTERT-BJ1 at 220 uM concentration; format: functional, Homo sapiens
# [8] = tested on: BJ; assay: Compound was tested for human telomerase reverse transcriptase-SEAP (hTERT-SEAP) activity in immortalized hTERT-BJI at 220.0 uM concentration; format: functional
# [9] = tested on: BJ; assay: pPCMV-SEAP (cytomegalovirus-SEAP) activity in immortalized hTERT-BJ1 at 2.0 uM concentration and level of cell viability determined in MTT assay; format: functional, Homo sapiens
# [10] = tested on: BJ; assay: hTERT-SEAP (Human telomerase reverse transcriptase-SEAP) activity in immortalized hTERT-BJI at 22 uM concentration and level of cell viability determined in MTT assay; format: functional
# [11] = tested on: NCI-H1299; assay: Compound was tested for human telomerase reverse transcriptase-SEAP (hTERT-SEAP) activity in non-small cell lung cancer H1299 cell at 2.2 uM concentration; format: functional
# [12] = tested on: BJ; assay: Compound was tested for cytomegalovirus or (pPCMV-SEAP) activity in immortalized hTERT-BJ1 at 22 uM concentration; format: functional, Homo sapiens
# [13] = tested on: NCI-H1299; assay: Compound was tested for human telomerase reverse transcriptase-SEAP (hTERT-SEAP) activity in non-small cell lung cancer H1299 cell at 22 uM concentration; format: functional
# [14] = tested on: BJ; assay: pPCMV-SEAP (cytomegalovirus-SEAP) activity in immortalized hTERT-BJ1 at 22 uM concentration and level of cell viability determined in MTT assay; format: functional, Homo sapiens
# [15] = tested on: BJ; assay: hTERT-SEAP (Human telomerase reverse transcriptase-SEAP) activity in immortalized hTERT-BJI at 220.0 uM concentration and level of cell viability determined in MTT assay; format: functional
# [16] = tested on: NCI-H1299; assay: hTERT-SEAP (Human telomerase reverse transcriptase-SEAP) activity in non-small cell lung cancer H1299 cell at 220.0 uM concentration and level of cell viability determined in MTT assay; format: functional
# [17] = tested on: NCI-H1299; assay: hTERT-SEAP (Human telomerase reverse transcriptase-SEAP) activity in non-small cell lung cancer H1299 cell at 2.2 uM concentration and level of cell viability determined in MTT assay; format: functional
# [18] = tested on: BJ; assay: Compound was tested for cytomegalovirus or (pPCMV-SEAP) activity in immortalized hTERT-BJ1 at 180 uM concentration; format: functional, Homo sapiens
# [19] = tested on: BJ; assay: pPCMV-SEAP (cytomegalovirus-SEAP) activity in immortalized hTERT-BJ1 at 18 uM concentration and level of cell viability determined in MTT assay; format: functional, Homo sapiens
# [20] = tested on: BJ; assay: Compound was tested for human telomerase reverse transcriptase-SEAP (hTERT-SEAP) activity in immortalized hTERT-BJI at 180.0 uM concentration; format: functional
# [21] = tested on: NCI-H1299; assay: Compound was tested for human telomerase reverse transcriptase-SEAP (hTERT-SEAP) activity in non-small cell lung cancer H1299 cell at 18 uM concentration; format: functional
# [22] = tested on: NCI-H1299; assay: Compound was tested for human telomerase reverse transcriptase-SEAP (hTERT-SEAP) activity in non-small cell lung cancer H1299 cell at 180.0 uM concentration; format: functional
# [23] = tested on: BJ; assay: Compound was tested for cytomegalovirus or (pPCMV-SEAP) activity in immortalized hTERT-BJ1 at 18 uM concentration; format: functional, Homo sapiens
# [24] = tested on: NCI-H1299; assay: hTERT-SEAP (Human telomerase reverse transcriptase-SEAP) activity in non-small cell lung cancer H1299 cell at 180.0 uM concentration and level of cell viability determined in MTT assay; format: functional
# [25] = tested on: BJ; assay: Compound was tested for cytomegalovirus or (pPCMV-SEAP) activity in immortalized hTERT-BJ1 at 1.8 uM concentration; format: functional, Homo sapiens
# [26] = tested on: BJ; assay: hTERT-SEAP (Human telomerase reverse transcriptase-SEAP) activity in immortalized hTERT-BJI at 180.0 uM concentration and level of cell viability determined in MTT assay; format: functional
# [27] = tested on: NCI-H1299; assay: hTERT-SEAP (Human telomerase reverse transcriptase-SEAP) activity in non-small cell lung cancer H1299 cell at 1.8 uM concentration and level of cell viability determined in MTT assay; format: functional
# [28] = tested on: BJ; assay: pPCMV-SEAP (cytomegalovirus-SEAP) activity in immortalized hTERT-BJ1 at 180 uM concentration and level of cell viability determined in MTT assay; format: functional, Homo sapiens
# [29] = tested on: NCI-H1299; assay: hTERT-SEAP (Human telomerase reverse transcriptase-SEAP) activity in non-small cell lung cancer H1299 cell at 18 uM concentration and level of cell viability determined in MTT assay; format: functional
# [30] = tested on: BJ; assay: Compound was tested for human telomerase reverse transcriptase-SEAP (hTERT-SEAP) activity in immortalized hTERT-BJI at 18 uM concentration; format: functional
# [31] = tested on: BJ; assay: pPCMV-SEAP (cytomegalovirus-SEAP) activity in immortalized hTERT-BJ1 at 1.8 uM concentration and level of cell viability determined in MTT assay; format: functional, Homo sapiens
# [32] = tested on: NCI-H1299; assay: Compound was tested for human telomerase reverse transcriptase-SEAP (hTERT-SEAP) activity in non-small cell lung cancer H1299 cell at 1.8 uM concentration; format: functional
# [33] = tested on: BJ; assay: hTERT-SEAP (Human telomerase reverse transcriptase-SEAP) activity in immortalized hTERT-BJI at 18 uM concentration and level of cell viability determined in MTT assay; format: functional
# [34] = tested on: BJ; assay: hTERT-SEAP (Human telomerase reverse transcriptase-SEAP) activity in immortalized hTERT-BJI at 24 uM concentration and level of cell viability determined in MTT assay; format: functional
# [35] = tested on: BJ; assay: Compound was tested for cytomegalovirus or (pPCMV-SEAP) activity in immortalized hTERT-BJ1 at 240 uM concentration; format: functional, Homo sapiens
# [36] = tested on: BJ; assay: Compound was tested for human telomerase reverse transcriptase-SEAP (hTERT-SEAP) activity in immortalized hTERT-BJI at 240.0 uM concentration; format: functional
# [37] = tested on: BJ; assay: Compound was tested for cytomegalovirus or (pPCMV-SEAP) activity in immortalized hTERT-BJ1 at 2.4 uM concentration; format: functional, Homo sapiens
# [38] = tested on: NCI-H1299; assay: hTERT-SEAP (Human telomerase reverse transcriptase-SEAP) activity in non-small cell lung cancer H1299 cell at 240.0 uM concentration and level of cell viability determined in MTT assay; format: functional
# [39] = tested on: NCI-H1299; assay: Compound was tested for human telomerase reverse transcriptase-SEAP (hTERT-SEAP) activity in non-small cell lung cancer H1299 cell at 24 uM concentration; format: functional
# [40] = tested on: NCI-H1299; assay: Compound was tested for human telomerase reverse transcriptase-SEAP (hTERT-SEAP) activity in non-small cell lung cancer H1299 cell at 2.4 uM concentration; format: functional
# [41] = tested on: BJ; assay: Compound was tested for cytomegalovirus or (pPCMV-SEAP) activity in immortalized hTERT-BJ1 at 24 uM concentration; format: functional, Homo sapiens
# [42] = tested on: NCI-H1299; assay: hTERT-SEAP (Human telomerase reverse transcriptase-SEAP) activity in non-small cell lung cancer H1299 cell at 2.4 uM concentration and level of cell viability determined in MTT assay; format: functional
# [43] = tested on: BJ; assay: hTERT-SEAP (Human telomerase reverse transcriptase-SEAP) activity in immortalized hTERT-BJI at 240.0 uM concentration and level of cell viability determined in MTT assay; format: functional
# [44] = tested on: BJ; assay: pPCMV-SEAP (cytomegalovirus-SEAP) activity in immortalized hTERT-BJ1 at 24 uM concentration and level of cell viability determined in MTT assay; format: functional, Homo sapiens
# [45] = tested on: BJ; assay: pPCMV-SEAP (cytomegalovirus-SEAP) activity in immortalized hTERT-BJ1 at 240 uM concentration and level of cell viability determined in MTT assay; format: functional, Homo sapiens
# [46] = tested on: NCI-H1299; assay: Compound was tested for human telomerase reverse transcriptase-SEAP (hTERT-SEAP) activity in non-small cell lung cancer H1299 cell at 240.0 uM concentration; format: functional
# [47] = tested on: NCI-H1299; assay: hTERT-SEAP (Human telomerase reverse transcriptase-SEAP) activity in non-small cell lung cancer H1299 cell at 24 uM concentration and level of cell viability determined in MTT assay; format: functional
# [48] = tested on: BJ; assay: Compound was tested for human telomerase reverse transcriptase-SEAP (hTERT-SEAP) activity in immortalized hTERT-BJI at 24 uM concentration; format: functional
# [49] = tested on: BJ; assay: pPCMV-SEAP (cytomegalovirus-SEAP) activity in immortalized hTERT-BJ1 at 2.4 uM concentration and level of cell viability determined in MTT assay; format: functional, Homo sapiens
# [50] = tested on: BJ; assay: Compound was tested for human telomerase reverse transcriptase-SEAP (hTERT-SEAP) activity in immortalized hTERT-BJI at 2.4 uM concentration; format: functional
compound,measurement,setting,value
COc1ccc(CSc2cccc3c2C(=O)c2cccc(SCc4ccc(OC)cc4)c2C3=O)cc1,Relative SEAP activity,[1],103%
same,Relative SEAP activity,[2],141%
same,Relative viability,[3],52%
same,Relative SEAP activity,[4],88%
same,Relative viability,[5],119%
same,Relative SEAP activity,[6],142%
same,Relative SEAP activity,[7],100%
same,Relative SEAP activity,[8],118%
same,Relative viability,[9],116%
same,Relative viability,[10],98%
same,Relative SEAP activity,[11],92%
same,Relative SEAP activity,[12],102%
same,Relative SEAP activity,[13],96%
same,Relative viability,[14],67%
same,Relative viability,[15],62%
same,Relative viability,[16],42%
same,Relative viability,[17],89%
O=C(Oc1cccc2c1C(=O)c1cccc(OC(=O)c3ccc(Cl)cc3Cl)c1C2=O)c1ccc(Cl)cc1Cl,Relative SEAP activity,[18],121%
same,Relative viability,[19],105%
same,Relative SEAP activity,[20],160%
same,Relative SEAP activity,[21],102%
same,Relative SEAP activity,[22],96%
same,Relative SEAP activity,[23],111%
same,Relative viability,[24],77%
same,Relative SEAP activity,[25],99%
same,Relative viability,[26],96%
same,Relative viability,[27],108%
same,Relative viability,[28],108%
same,Relative viability,[29],103%
same,Relative SEAP activity,[30],150%
same,Relative viability,[31],105%
same,Relative SEAP activity,[32],100%
same,Relative viability,[33],102%
CC(C)(C)C(=O)Oc1cccc2c1C(=O)c1cccc(OC(=O)C(C)(C)C)c1C2=O,Relative viability,[34],93%
same,Relative SEAP activity,[35],141%
same,Relative SEAP activity,[36],141%
same,Relative SEAP activity,[37],102%
same,Relative viability,[38],70%
same,Relative SEAP activity,[39],78%
same,Relative SEAP activity,[40],105%
same,Relative SEAP activity,[41],114%
same,Relative viability,[42],106%
same,Relative viability,[43],100%
same,Relative viability,[44],104%
same,Relative viability,[45],103%
same,Relative SEAP activity,[46],80%
same,Relative viability,[47],97%
same,Relative SEAP activity,[48],165%
same,Relative viability,[49],115%
same,Relative SEAP activity,[50],147%
